In brackets after ≈: the same amount, converted by molar mass. Where two headings read alike, the source gives them in different places.
System: α-glucosidase
Format: biochemical
Conditions: for IC50 (concentration to obtain 50% enzyme inhibitory activity): obtained by interpolation from inhibition rate data
Protocol: Examples of unsaturated fatty acid used to analyze its enzyme inhibitive activity as a α-glucosidase inhibitor include oleic acid (Ω9), linoleic acid (Ω6), and α-linolenic acid (Ω3).
In the analytical method, p-nitrophenyl-α-D-glucopyranoside was used as a substrate. The absorbance was measured by spectrophotometry to determine the α-glucosidase inhibition activity of samples (Apostolidis E. Lee C M. In vitro potential of Ascophyllum nodosam phenolic antioxidant-mediated alpha-glucosidase and alpha-amylase inhibition. Journal of Food Science 2010, 75:H97-102; Kang W Y, Song Y L, Zhang L. α-Glucosidase inhibitory and antioxidant properties and antidiabetic activity of Hypericum ascyron L. Medicinal Chemistry Research 2011.20:809-816).
To a 1.5 ml eppendorf tube containing 0.05 ml of sample solution (in 5% methanol), 0.1 ml of α-glucosidase solution (2 U/ml; in 100 mM phosphate buffer, pH 6.9) was added. The mixture was incubated in 37° C. water bath for 10 min, and then 0.05 ml of 5 mM p-nitrophenyl-α-D-glucopyranoside (in 100 mM phosphate buffer, pH 6.9) was added and mixed homogeneously. The mixture was incubated in 37° C. water bath for 10 min, and then in boiling water for 5 min to stop the reaction. After the addition of 1 ml of deionized water, the absorbance at 405 nm was measured by spectrophotometer (U-1800, Hitachi. Tokyo, Japan). • 1. Determining the α-glucosidase inhibition activity of oleic acid (as the α-glucosidase inhibitor): • A. Experimental group: enzyme+substrate+unsaturated fat acid (oleic acid) • B. Control: enzyme+substrate+buffer • C. Background: buffer+buffer+unsaturated fatty acid (oleic acid) • Calculation of the rate of inhibition:
Inhibition rate %=[ODControl−(ODExperimental group−ODBackground)]/ODControl×100%

SMILES	Inhibition rate (%) (0.0125 mg/ml)	Inhibition rate (%) (0.0250 mg/ml)	Inhibition rate (%) (0.0500 mg/ml)	IC50 (concentration to obtain 50% enzyme inhibitory activity) [mg/mL]	Inhibition rate (%) (0.01 mg/ml)	Inhibition rate (%) (0.02 mg/ml)	Inhibition rate (%) (0.04 mg/ml)	Inhibition rate (%) (0.06 mg/ml)
CCCCC/C=C\C/C=C\CCCCCCCC(=O)O [linoleic acid]	2.99 ± 0.36	30.10 ± 0.54	91.60 ± 0.62	0.033 (≈ 118 µM)				
CCCCCCCC/C=C\CCCCCCCC(=O)O [oleic acid]				0.022 (≈ 77.9 µM)	11.8 ± 0.99	52.2 ± 0.55	96.7 ± 0.06	
CC/C=C\C/C=C\C/C=C\CCCCCCCC(=O)O [α-linolenic acid]			57.5 ± 2.39	0.047 (≈ 169 µM)			31.6 ± 1.80	81.0 ± 0.13
